According to US20220323406A1, “METHODS AND COMPOSITIONS FOR DIFFERENTIATING STEM CELLS” (Massachusetts Institute of Technology, priority 2019, published 2022):
Where a name gives a salt, the structure may show the parent alone.

Tests used:
ENR+CD organoids = assay: Primary screen: ATP (CellTiter-Glo 3D, CTG) cell number/viability, 2.5-D 384-well ENR+CD organoids; conditions: primary screen;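 also: compounds given at plating and again on day 3 over a 6-day differentiation from ENR+CV stem-cell-enriched precursors, ATP measured on day 6, plate median as control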
[1] = test system: ENR+CD organoids (ISC to Paneth cell differentiation); assay: Primary screen: CCh-stimulated lysozyme secretion LYZ.S, 2.5-D 384-well ENR+CD organoid differentiation; type: cell-based, mouse; conditions: primary screen
Description: (§1) High-throughput screening.

[2] = test system: ENR+CD organoids (ISC to Paneth cell differentiation); assay: Primary screen: basal (non-stimulated) lysozyme secretion LYZ.NS, 2.5-D 384-well ENR+CD organoid differentiation; type: cell-based, mouse; conditions: primary screen; for Z.LYZ.NS: standard z score
Description: as §1

[3] = 1st dose row of the treatment (0.08 uM by row order; dose not reprinted)
[4] = 2nd dose row of the treatment (0.40 uM by row order; dose not reprinted)
[5] = 3rd dose row of the treatment (2.00 uM by row order; dose not reprinted)
[6] = 4th dose row of the treatment (10.00 uM by row order; dose not reprinted)
[7] = dose 0.08 uM, FC vs plate median
[8] = dose 0.40 uM, FC vs plate median
[9] = dose 2.00 uM, FC vs plate median
[10] = dose 10.00 uM, FC vs plate median

CC(C)N(CC[C@H](c1ccccc1)c1cc(CO)ccc1O)C(C)C [5-hydroxymethyl Tolterodine (PNU 200577, 5-HMT, 5-HM)]
SSMD.CTG.Rep (strictly standardized mean difference) (ENR+CD organoids; [3]): −0.118 | SSMD.CTG.Rep (strictly standardized mean difference) (ENR+CD organoids; [4]): 0.291 | SSMD.CTG.Rep (strictly standardized mean difference) (ENR+CD organoids; [5]): 0.114 | SSMD.CTG.Rep (strictly standardized mean difference) (ENR+CD organoids; [6]): 0.061 | Dose.FC.CTG (ENR+CD organoids; dose 0.08 uM): −0.062 log2 fold change | Z.CTG (standard z score) (ENR+CD organoids; dose 0.08 uM): −0.149 | Dose.FC.CTG (ENR+CD organoids; dose 0.40 uM): 0.087 log2 fold change | Z.CTG (standard z score) (ENR+CD organoids; dose 0.40 uM): 0.207 | Dose.FC.CTG (ENR+CD organoids; dose 2.00 uM): 0.034 log2 fold change | Z.CTG (standard z score) (ENR+CD organoids; dose 2.00 uM): 0.082 | Dose.FC.CTG (ENR+CD organoids; dose 10.00 uM): 0.017 log2 fold change | Z.CTG (standard z score) (ENR+CD organoids; dose 10.00 uM): 0.040 | SSMD.LYZ.S_Rep (strictly standardized mean difference) [1, 3]: 0.460 | Z.LYZ.S (standard z score) [1, 3]: 0.417 | SSMD.LYZ.S_Rep (strictly standardized mean difference) [1, 4]: 0.266 | Z.LYZ.S (standard z score) [1, 4]: 0.231 | SSMD.LYZ.S_Rep (strictly standardized mean difference) [1, 5]: 0.174 | Z.LYZ.S (standard z score) [1, 5]: 0.152 | SSMD.LYZ.S_Rep (strictly standardized mean difference) [1, 6]: −0.042 | Z.LYZ.S (standard z score) [1, 6]: −0.044 | Dose.FC.LYZ.S ([1]; dose 0.08 uM): 0.065 log2 fold change | Dose.FC.LYZ.S ([1]; dose 0.40 uM): 0.036 log2 fold change | Dose.FC.LYZ.S ([1]; dose 2.00 uM): 0.023 log2 fold change | Dose.FC.LYZ.S ([1]; dose 10.00 uM): −0.007 log2 fold change | SSMD.LYZ.NS_Rep (strictly standardized mean difference) [2, 3]: 0.915 | SSMD.LYZ.NS_Rep (strictly standardized mean difference) [2, 4]: 0.760 | SSMD.LYZ.NS_Rep (strictly standardized mean difference) [2, 5]: 0.947 | SSMD.LYZ.NS_Rep (strictly standardized mean difference) [2, 6]: 0.223 | Dose.FC.LYZ.NS ([2]; dose 0.08 uM): 0.184 log2 fold change | Z.LYZ.NS (standard z score) ([2]; dose 0.08 uM): 1.599 | Dose.FC.LYZ.NS ([2]; dose 0.40 uM): 0.076 log2 fold change | Z.LYZ.NS (standard z score) ([2]; dose 0.40 uM): 0.665 | Dose.FC.LYZ.NS ([2]; dose 2.00 uM): 0.154 log2 fold change | Z.LYZ.NS (standard z score) ([2]; dose 2.00 uM): 1.344 | Dose.FC.LYZ.NS ([2]; dose 10.00 uM): 0.034 log2 fold change | Z.LYZ.NS (standard z score) ([2]; dose 10.00 uM): 0.293

O=C(O)Cn1nnc(-c2cc(N3CCC(Oc4cc(F)ccc4Br)CC3)no2)n1 [MK-8245]
Dose.FC.CTG (ENR+CD organoids; [7]): 0.156 log2 fold change | Dose.FC.CTG (ENR+CD organoids; [8]): −0.113 log2 fold change | Dose.FC.CTG (ENR+CD organoids; [9]): −0.021 log2 fold change | Dose.FC.CTG (ENR+CD organoids; [10]): −0.263 log2 fold change | Dose.FC.LYZ.S [1, 7]: 0.069 log2 fold change | Dose.FC.LYZ.S [1, 8]: 0.185 log2 fold change | Dose.FC.LYZ.S [1, 9]: −0.062 log2 fold change | Dose.FC.LYZ.S [1, 10]: −0.123 log2 fold change | Z.LYZ.NS ([2]; dose 0.08 uM): 0.200 | Z.LYZ.NS ([2]; dose 0.40 uM): 0.273 | Z.LYZ.NS ([2]; dose 2.00 uM): −0.315 | Z.LYZ.NS ([2]; dose 10.00 uM): −0.670 | Dose.FC.LYZ.NS [2, 7]: 0.023 log2 fold change | Dose.FC.LYZ.NS [2, 8]: 0.031 log2 fold change | Dose.FC.LYZ.NS [2, 9]: −0.036 log2 fold change | Dose.FC.LYZ.NS [2, 10]: −0.077 log2 fold change

Cc1sc2c(c1C)C(c1ccc(Cl)cc1)=N[C@@H](CC(=O)Nc1ccc(O)cc1)c1nnc(C)n1-2 [OTX015]
Dose.FC.CTG (ENR+CD organoids; [7]): −0.038 log2 fold change | Dose.FC.CTG (ENR+CD organoids; [8]): −0.398 log2 fold change | Dose.FC.CTG (ENR+CD organoids; [9]): −0.686 log2 fold change | Dose.FC.CTG (ENR+CD organoids; [10]): −0.908 log2 fold change | Dose.FC.LYZ.S [1, 7]: −0.279 log2 fold change | Dose.FC.LYZ.S [1, 8]: −0.350 log2 fold change | Dose.FC.LYZ.S [1, 9]: −0.350 log2 fold change | Dose.FC.LYZ.S [1, 10]: −0.362 log2 fold change | Z.LYZ.NS ([2]; dose 0.08 uM): −1.726 | Z.LYZ.NS ([2]; dose 0.40 uM): −2.317 | Z.LYZ.NS ([2]; dose 2.00 uM): −2.082 | Z.LYZ.NS ([2]; dose 10.00 uM): −2.225 | Dose.FC.LYZ.NS [2, 7]: −0.198 log2 fold change | Dose.FC.LYZ.NS [2, 8]: −0.266 log2 fold change | Dose.FC.LYZ.NS [2, 9]: −0.239 log2 fold change | Dose.FC.LYZ.NS [2, 10]: −0.256 log2 fold change

O=C1CC[C@@]2(O)[C@H]3Cc4ccc(O)c5c4[C@@]2(CCN3CC2CC2)[C@H]1O5 [Naltrexone HCl]
Dose.FC.CTG (ENR+CD organoids; [7]): 0.089 log2 fold change | Dose.FC.CTG (ENR+CD organoids; [8]): 0.070 log2 fold change | Dose.FC.CTG (ENR+CD organoids; [9]): 0.004 log2 fold change | Dose.FC.LYZ.S [1, 7]: 0.002 log2 fold change | Dose.FC.LYZ.S [1, 8]: 0.025 log2 fold change | Dose.FC.LYZ.S [1, 9]: 0.025 log2 fold change | Dose.FC.LYZ.S [1, 10]: 0.045 log2 fold change | Z.LYZ.NS ([2]; dose 0.08 uM): −0.067 | Z.LYZ.NS ([2]; dose 0.40 uM): −0.043 | Z.LYZ.NS ([2]; dose 2.00 uM): 0.166 | Z.LYZ.NS ([2]; dose 10.00 uM): 0.302 | Dose.FC.LYZ.NS [2, 7]: −0.008 log2 fold change | Dose.FC.LYZ.NS [2, 8]: −0.005 log2 fold change | Dose.FC.LYZ.NS [2, 9]: 0.019 log2 fold change | Dose.FC.LYZ.NS [2, 10]: 0.035 log2 fold change
